Data from patent publication EP0908457B1, “3-(1,2-benzisothiazol- and isoxazol-5-Y1)-2,4(1H,3H)-pyrimidinedione or thione and 3-(1,2-benzisothiazol- and isoxazol-5-y1)-4(3H)-pyrimidinone or thione herbicidal agents” (BASF AKTIENGESELLSCHAFT, priority 1997, dated 1999).

Tests used:
[1] = system: Echinochloa oryzoides (Ard.) Fritsch.; assay: Preemergence weed control under flooded paddy conditions, ECHORC (Watergrass (Calif.)); format: in vivo; conditions: preemergence, flooded paddy; as to herbicidal effect rating, ECHORC: meaning of each grade not given here
[2] = system: Monochoria vaginalis, Presl.; assay: Preemergence weed control under flooded paddy conditions, MOOVA (Monochoria); format: in vivo; conditions: preemergence, flooded paddy; as to herbicidal effect rating, MOOVA: meaning of each grade not given here
[3] = system: Oryza sativa, (L.) Tebonnet; assay: Rice tolerance to post-transplant applications under flooded paddy conditions (Example 187), ORYSAT (Rice, Tebonnet); as to herbicidal effect rating ORYSAT: meaning of each grade not given here
Sagittaria pygmaea, L. = assay: Preemergence weed control under flooded paddy conditions, SAGPY (Arrowhead (Pygmaea)); format: in vivo; conditions: preemergence, flooded paddy; as to herbicidal effect rating, SAGPY: meaning of each grade not given here
Cyperus iria = assay: Preemergence weed control under flooded paddy conditions, CYPIR (Rice Flatsedge); format: in vivo; conditions: preemergence, flooded paddy; as to herbicidal effect rating, CYPIR: meaning of each grade not given here
[4] = system: Cyperus serotinus, Rottb.; assay: Preemergence weed control under flooded paddy conditions, CYPSE (Flatsedge); format: in vivo; conditions: preemergence; as to herbicidal effect rating, CYPSE: meaning of each grade not given here
[5] = Rate 0.0320 kg/ha, rated 3-4 weeks after treatment
[6] = Rate 0.0620 kg/ha, rated 3-4 weeks after treatment
[7] = Rate 0.1250 kg/ha, rated 3-4 weeks after treatment
[8] = Rate 0.2500 kg/ha, rated 3-4 weeks after treatment
[9] = Rate 0.0320 kg/ha, rated three to four weeks after treatment
[10] = Rate 0.0620 kg/ha, rated three to four weeks after treatment
[11] = Rate 0.1250 kg/ha, rated three to four weeks after treatment
[12] = Rate 0.2500 kg/ha, rated three to four weeks after treatment
[13] = Rate 0.5000 kg/ha, rated three to four weeks after treatment

`C#CC(C)OC(=O)C(C)(C)Oc1ccc(C)cc1-c1nsc2ccc(-n3c(=O)cc(C(F)(F)F)n(C)c3=O)cc12` (stereo not drawn) [Example 531, Propionic acid, 2-{{2-{5-[3,6-dihydro-3-methyl-2,6-dioxo-4-(trifluoromethyl)-1(2H)-pyrimidinyl]-1,2-benzisothiazol-3-yl}-p-tolyl}oxy}-2-methyl-, 1-methyl-2-propynyl ester] was tested, and the “herbicidal effect rating, ECHORC” value [1, 5] was 9.0, the “herbicidal effect rating, ECHORC” value [1, 6] was 9.0 and the “herbicidal effect rating, ECHORC” value [1, 7] was 9.0. For the same molecule, the “herbicidal effect rating, ECHORC” value [1, 8] was 9.0, the “herbicidal effect rating, MOOVA” value [2, 5] was 9.0 and the “herbicidal effect rating, MOOVA” value [2, 6] was 9.0. The “herbicidal effect rating, MOOVA” value [2, 7] was 9.0, the “herbicidal effect rating, MOOVA” value [2, 8] was 9.0 and the “herbicidal effect rating ORYSAT” value [3, 5] was 0.0. The “herbicidal effect rating ORYSAT” value [3, 6] was 0.0, the “herbicidal effect rating ORYSAT” value [3, 7] was 3.0 and the “herbicidal effect rating ORYSAT” value [3, 8] was 9.0. For the same molecule, the “herbicidal effect rating, SAGPY” value (Sagittaria pygmaea, L.; [5]) was 0.0, the “herbicidal effect rating, SAGPY” value (Sagittaria pygmaea, L.; [6]) was 0.0 and the “herbicidal effect rating, SAGPY” value (Sagittaria pygmaea, L.; [7]) was 3.0. For the same molecule, the “herbicidal effect rating, SAGPY” value (Sagittaria pygmaea, L.; [8]) was 3.0, the “herbicidal effect rating, CYPIR” value (Cyperus iria; [5]) was 0.0 and the “herbicidal effect rating, CYPIR” value (Cyperus iria; [6]) was 0.0. For the same molecule, the “herbicidal effect rating, CYPIR” value (Cyperus iria; [7]) was 4.0, the “herbicidal effect rating, CYPIR” value (Cyperus iria; [8]) was 4.0 and the “herbicidal effect rating, CYPSE” value [4, 5] was 0.0. For the same molecule, the “herbicidal effect rating, CYPSE” value [4, 6] was 0.0, the “herbicidal effect rating, CYPSE” value [4, 7] was 3.0 and the “herbicidal effect rating, CYPSE” value [4, 8] was 3.0.

In the case of `CN(C(=O)c1nsc2ccc(-n3c(=O)cc(C(F)(F)F)n(C)c3=O)cc12)c1ccc(Cl)cc1` [Example 365, 1,2-Benzisothiazole-3-carboxanilide, 4'-chloro-5-[3,6-dihydro-3-methyl-2,6-dioxo-4-(trifluoromethyl)-1(2H)-pyrimidinyl]-N-methyl-], the “herbicidal effect rating, ECHORC” value [1, 9] is reported as 4.0, the “herbicidal effect rating, ECHORC” value [1, 10] is reported as 6.0 and the “herbicidal effect rating, ECHORC” value [1, 11] is reported as 9.0. For the same molecule, the “herbicidal effect rating, ECHORC” value [1, 12] was 9.0, the “herbicidal effect rating, ECHORC” value [1, 13] was 9.0 and the “herbicidal effect rating, MOOVA” value [2, 9] was 9.0. The “herbicidal effect rating, MOOVA” value [2, 10] was 9.0, the “herbicidal effect rating, MOOVA” value [2, 11] was 9.0 and the “herbicidal effect rating, MOOVA” value [2, 12] was 9.0. For the same molecule, the “herbicidal effect rating, MOOVA” value [2, 13] was 9.0, the “herbicidal effect rating ORYSAT” value [3, 9] was 3.0 and the “herbicidal effect rating ORYSAT” value [3, 10] was 5.0. For the same molecule, the “herbicidal effect rating ORYSAT” value [3, 11] was 5.0, the “herbicidal effect rating ORYSAT” value [3, 12] was 5.0 and the “herbicidal effect rating ORYSAT” value [3, 13] was 6.0. For the same molecule, the “herbicidal effect rating, SAGPY” value (Sagittaria pygmaea, L.; [9]) was 3.0, the “herbicidal effect rating, SAGPY” value (Sagittaria pygmaea, L.; [10]) was 5.0 and the “herbicidal effect rating, SAGPY” value (Sagittaria pygmaea, L.; [11]) was 5.0. For the same molecule, the “herbicidal effect rating, SAGPY” value (Sagittaria pygmaea, L.; [12]) was 5.0, the “herbicidal effect rating, SAGPY” value (Sagittaria pygmaea, L.; [13]) was 6.0 and the “herbicidal effect rating, CYPIR” value (Cyperus iria; [9]) was 4.0. The “herbicidal effect rating, CYPIR” value (Cyperus iria; [10]) was 6.0, the “herbicidal effect rating, CYPIR” value (Cyperus iria; [11]) was 6.0 and the “herbicidal effect rating, CYPIR” value (Cyperus iria; [12]) was 9.0. The “herbicidal effect rating, CYPIR” value (Cyperus iria; [13]) was 9.0, the “herbicidal effect rating, CYPSE” value [4, 9] was 4.0 and the “herbicidal effect rating, CYPSE” value [4, 10] was 4.0. For the same molecule, the “herbicidal effect rating, CYPSE” value [4, 11] was 4.0, the “herbicidal effect rating, CYPSE” value [4, 12] was 9.0 and the “herbicidal effect rating, CYPSE” value [4, 13] was 9.0.

`CO/N=C/c1nsc2ccc(-n3c(=O)cc(C(F)(F)F)n(C)c3=O)cc12` [Example 277, 1,2-Benzisothiazole-3-carboxaldehyde, 5-[3,6-dihydro-3-methyl-2,6-dioxo-4-(trifluoromethyl)-1(2H)-pyrimidinyl]-, 3-(O-methyloxime), (E)-] was tested, and the “ECHORC herbicidal effect rating” value [1, 9] was 7.0, the “ECHORC herbicidal effect rating” value [1, 10] was 8.6 and the “ECHORC herbicidal effect rating” value [1, 11] was 9.0. The “ECHORC herbicidal effect rating” value [1, 12] was 9.0, the “ECHORC herbicidal effect rating” value [1, 13] was 9.0 and the “MOOVA herbicidal effect rating” value [2, 9] was 9.0. The “MOOVA herbicidal effect rating” value [2, 10] was 9.0, the “MOOVA herbicidal effect rating” value [2, 11] was 9.0 and the “MOOVA herbicidal effect rating” value [2, 12] was 9.0. For the same molecule, the “MOOVA herbicidal effect rating” value [2, 13] was 9.0, the “ORYSAT herbicidal effect rating” value [3, 9] was 5.0 and the “ORYSAT herbicidal effect rating” value [3, 10] was 7.0. The “ORYSAT herbicidal effect rating” value [3, 11] was 7.0, the “ORYSAT herbicidal effect rating” value [3, 12] was 8.0 and the “ORYSAT herbicidal effect rating” value [3, 13] was 9.0. The “SAGPY herbicidal effect rating” value (Sagittaria pygmaea, L.; [9]) was 6.0, the “SAGPY herbicidal effect rating” value (Sagittaria pygmaea, L.; [10]) was 8.0 and the “SAGPY herbicidal effect rating” value (Sagittaria pygmaea, L.; [11]) was 9.0. The “SAGPY herbicidal effect rating” value (Sagittaria pygmaea, L.; [12]) was 9.0, the “SAGPY herbicidal effect rating” value (Sagittaria pygmaea, L.; [13]) was 9.0 and the “CYPIR herbicidal effect rating” value (Cyperus iria; [9]) was 9.0. The “CYPIR herbicidal effect rating” value (Cyperus iria; [10]) was 9.0, the “CYPIR herbicidal effect rating” value (Cyperus iria; [11]) was 9.0 and the “CYPIR herbicidal effect rating” value (Cyperus iria; [12]) was 9.0. For the same molecule, the “CYPIR herbicidal effect rating” value (Cyperus iria; [13]) was 9.0, the “CYPSE herbicidal effect rating” value [4, 9] was 2.0 and the “CYPSE herbicidal effect rating” value [4, 10] was 9.0. The “CYPSE herbicidal effect rating” value [4, 11] was 9.0, the “CYPSE herbicidal effect rating” value [4, 12] was 9.0 and the “CYPSE herbicidal effect rating” value [4, 13] was 9.0.

In the case of `C#CCC(C#N)(CC#C)c1nsc2ccc(-n3c(=O)cc(C(F)(F)F)n(C)c3=O)cc12` [Example 581, 1,2-Benzisothiazole-3-acetonitrile, 5-[3,6-dihydro-3-methyl-2,6-dioxo-4-(trifluoromethyl)-1(2H)-pyrimidinyl]-alpha,alpha-di-2-propynyl-], the “herbicidal effect rating, ECHORC” value [1, 9] is reported as 6.0, the “herbicidal effect rating, ECHORC” value [1, 10] is reported as 8.5 and the “herbicidal effect rating, ECHORC” value [1, 11] is reported as 9.0. The “herbicidal effect rating, ECHORC” value [1, 12] was 9.0, the “herbicidal effect rating, MOOVA” value [2, 9] was 4.5 and the “herbicidal effect rating, MOOVA” value [2, 10] was 4.5. For the same molecule, the “herbicidal effect rating, MOOVA” value [2, 11] was 9.0, the “herbicidal effect rating, MOOVA” value [2, 12] was 9.0 and the “herbicidal effect rating ORYSAT” value [3, 9] was 1.5. For the same molecule, the “herbicidal effect rating ORYSAT” value [3, 10] was 3.5, the “herbicidal effect rating ORYSAT” value [3, 11] was 6.0 and the “herbicidal effect rating ORYSAT” value [3, 12] was 7.0. The “herbicidal effect rating, SAGPY” value (Sagittaria pygmaea, L.; [9]) was 3.0, the “herbicidal effect rating, SAGPY” value (Sagittaria pygmaea, L.; [10]) was 9.0 and the “herbicidal effect rating, SAGPY” value (Sagittaria pygmaea, L.; [11]) was 9.0. The “herbicidal effect rating, SAGPY” value (Sagittaria pygmaea, L.; [12]) was 9.0, the “herbicidal effect rating, CYPIR” value (Cyperus iria; [9]) was 3.0 and the “herbicidal effect rating, CYPIR” value (Cyperus iria; [10]) was 4.5. The “herbicidal effect rating, CYPIR” value (Cyperus iria; [11]) was 9.0, the “herbicidal effect rating, CYPIR” value (Cyperus iria; [12]) was 9.0 and the “herbicidal effect rating, CYPSE” value [4, 9] was 1.0. The “herbicidal effect rating, CYPSE” value [4, 10] was 1.5, the “herbicidal effect rating, CYPSE” value [4, 11] was 6.0 and the “herbicidal effect rating, CYPSE” value [4, 12] was 8.0.

`Cc1ccc(OC(C)C(=O)NS(=O)(=O)C(C)C)c(-c2nsc3ccc(-n4c(=O)cc(C(F)(F)F)n(C)c4=O)cc23)c1` (stereo not drawn) [Example 568, Propionamide, 2-{{2-{5-[3,6-dihydro-3-methyl-2,6-dioxo-4-(trifluoromethyl)-1(2H)-pyrimidinyl]-1,2-benzisothiazol-3-yl}-p-tolyl}oxy}-N-(isopropylsulfonyl)-] was tested, and the “herbicidal effect rating, ECHORC” value [1, 9] was 0.0, the “herbicidal effect rating, ECHORC” value [1, 10] was 3.0 and the “herbicidal effect rating, ECHORC” value [1, 11] was 5.0. The “herbicidal effect rating, ECHORC” value [1, 12] was 6.0, the “herbicidal effect rating, MOOVA” value [2, 9] was 0.0 and the “herbicidal effect rating, MOOVA” value [2, 10] was 9.0. For the same molecule, the “herbicidal effect rating, MOOVA” value [2, 11] was 9.0, the “herbicidal effect rating, MOOVA” value [2, 12] was 9.0 and the “herbicidal effect rating ORYSAT” value [3, 9] was 0.0. For the same molecule, the “herbicidal effect rating ORYSAT” value [3, 10] was 0.0, the “herbicidal effect rating ORYSAT” value [3, 11] was 1.0 and the “herbicidal effect rating ORYSAT” value [3, 12] was 3.0. The “herbicidal effect rating, SAGPY” value (Sagittaria pygmaea, L.; [9]) was 0.0, the “herbicidal effect rating, SAGPY” value (Sagittaria pygmaea, L.; [10]) was 0.0 and the “herbicidal effect rating, SAGPY” value (Sagittaria pygmaea, L.; [11]) was 0.0. For the same molecule, the “herbicidal effect rating, SAGPY” value (Sagittaria pygmaea, L.; [12]) was 0.0, the “herbicidal effect rating, CYPIR” value (Cyperus iria; [9]) was 0.0 and the “herbicidal effect rating, CYPIR” value (Cyperus iria; [10]) was 0.0. The “herbicidal effect rating, CYPIR” value (Cyperus iria; [11]) was 5.0, the “herbicidal effect rating, CYPIR” value (Cyperus iria; [12]) was 7.0 and the “herbicidal effect rating, CYPSE” value [4, 9] was 0.0. For the same molecule, the “herbicidal effect rating, CYPSE” value [4, 10] was 0.0, the “herbicidal effect rating, CYPSE” value [4, 11] was 0.0 and the “herbicidal effect rating, CYPSE” value [4, 12] was 0.0.
